Source: ChEMBL document CHEMBL3822389, “New insights into 3-(aminomethyl)naphthoquinones: Evaluation of cytotoxicity, electrochemical behavior and search for structure-activity correlation” (Bioorg Med Chem Lett, 2016)

Tests used:
[1] = tested on: MDA-MB-435; assay: Cytotoxicity against human MDA-MB-435 cells after 72 hrs by MTT assay; format: functional, cell-based
[2] = Cytotoxicity against human HCT8 cells after 72 hrs by MTT assay; format: functional, cell-based, HCT-8
[3] = Cytotoxicity against human SF295 cells after 72 hrs by MTT assay; format: functional, cell-based, SF-295
[4] = Cytotoxicity against human HL60 cells after 72 hrs by MTT assay; format: functional, cell-based, HL-60

Row | Compound | IC50 ([1]; Homo sapiens, MDA-MB-435, 72 h) [µM] | IC50 ([2]; Homo sapiens, HCT-8, 72 h) [µM] | IC50 ([3]; Homo sapiens, SF-295, 72 h) [µM] | IC50 ([4]; Homo sapiens, HL-60, 72 h) [µM] | IC50 ([1]; mda-mb-435) [µM] | IC50 ([2]; hct-8) [µM] | IC50 ([3]; sf-295) [µM] | IC50 ([4]; hl-60) [µM]
1 | CC(C)(C)OC(=O)NCCCNC(C1=C(O)C(=O)c2ccccc2C1=O)c1cccc(O)c1 (centres undefined) | > 40 | > 40 | > 40 | > 40 | – | – | – | –
2 | CC(C)(C)OC(=O)NCCNC(C1=C(O)C(=O)c2ccccc2C1=O)c1ccccc1O (centres undefined) | 26.3 | 10.8 | 15.9 | 19.2 | – | – | – | –
3 | CCCCCCCNC(C1=C(O)C(=O)c2ccccc2C1=O)c1ccccn1 (centres undefined) | > 40 | 1.6 | 1 | 1.8 | – | – | – | –
4 | O=C1C(O)=C(C(NCc2ccccn2)c2ccccc2)C(=O)c2ccccc21 (centres undefined) [listing 1 of 2 here] | – | – | – | – | 3.6 | 6.3 | 13.5 | 5.4
5 | COc1ccc(NC(C2=C(O)C(=O)c3ccccc3C2=O)c2ccccn2)cc1 (centres undefined) | > 40 | > 40 | > 40 | > 40 | – | – | – | –
6 | O=C1C(O)=C(C(NCc2ccccn2)c2ccccc2)C(=O)c2ccccc21 (centres undefined) [listing 2 of 2 here] | – | – | – | – | > 40 | 14.3 | > 40 | > 40
7 | CCCCNC(C1=C(O)C(=O)c2ccccc2C1=O)c1cc(Br)ccc1O (centres undefined) | – | – | 21.4 | – | 23.9 | 12.5 | – | 6.2
8 | O=C1C(O)=C(C(NCc2ccccc2)c2cc(Br)ccc2O)C(=O)c2ccccc21 (centres undefined) [listing 1 of 2 here] | – | – | 17.4 | 8.4 | 25.2 | 14.9 | – | –
9 | CCCCCCCNC(C1=C(O)C(=O)c2ccccc2C1=O)c1ccc(Cl)cc1Cl (centres undefined) | > 40 | > 40 | > 40 | 4.5 | – | – | – | –
10 | CCCCCCCNC(C1=C(O)C(=O)c2ccccc2C1=O)c1ccccc1 (centres undefined) | > 40 | > 40 | > 40 | > 40 | – | – | – | –
11 | O=C1C(O)=C(C(NCCCCl)c2ccccc2O)C(=O)c2ccccc21 (centres undefined) | 30.1 | 17.7 | 17.5 | 8.1 | – | – | – | –
12 | CCCCNC(C1=C(O)C(=O)c2ccccc2C1=O)c1cc(C)ccc1O (centres undefined) | – | – | – | – | 11 | 5.6 | 5.5 | 1.6
13 | CC(C)(C)OC(=O)NCCCNC(C1=C(O)C(=O)c2ccccc2C1=O)c1ccc([N+](=O)[O-])cc1 (centres undefined) | > 40 | > 40 | > 40 | > 40 | – | – | – | –
14 | CCCCCCCCCCNC(C1=C(O)C(=O)c2ccccc2C1=O)c1cccc(O)c1 (centres undefined) | 31.1 | 25.8 | > 40 | 11.9 | – | – | – | –
15 | CCCCNC(C1=C(O)C(=O)c2ccccc2C1=O)c1ccccn1 (centres undefined) | > 40 | 12.5 | 9.5 | > 40 | – | – | – | –
16 | O=C1C(O)=C(C(NCc2ccco2)c2ccccc2O)C(=O)c2ccccc21 (centres undefined) | – | – | – | – | 2.9 | 3 | 1.8 | 1.2
17 | CCCCCCCNC(C1=C(O)C(=O)c2ccccc2C1=O)c1cccc(O)c1 (centres undefined) | > 40 | > 40 | > 40 | > 40 | – | – | – | –
18 | CC(C)(C)OC(=O)NCCNC(C1=C(O)C(=O)c2ccccc2C1=O)c1ccc(Cl)cc1Cl (centres undefined) | > 40 | > 40 | > 40 | > 40 | – | – | – | –

Row | Compound | IC50 ([1]; Homo sapiens, MDA-MB-435, 72 h) [µM] | IC50 ([2]; Homo sapiens, HCT-8, 72 h) [µM] | IC50 ([3]; Homo sapiens, SF-295, 72 h) [µM] | IC50 ([4]; Homo sapiens, HL-60, 72 h) [µM] | IC50 ([1]; mda-mb-435) [µM] | IC50 ([2]; hct-8) [µM] | IC50 ([3]; sf-295) [µM] | IC50 ([4]; hl-60) [µM]
19 | CC(C)(C)OC(=O)NCCCNC(C1=C(O)C(=O)c2ccccc2C1=O)c1ccccc1 (centres undefined) | > 40 | > 40 | > 40 | > 40 | – | – | – | –
20 | CCCCCCCCCCNC(C1=C(O)C(=O)c2ccccc2C1=O)c1cc(Br)ccc1O (centres undefined) | > 40 | > 40 | > 40 | > 40 | – | – | – | –
21 | CCCCCCCNC(C1=C(O)C(=O)c2ccccc2C1=O)c1ccc([N+](=O)[O-])cc1 (centres undefined) | > 40 | > 40 | > 40 | > 40 | – | – | – | –
22 | CC(C)(C)OC(=O)NCCCNCC1=C(O)C(=O)c2ccccc2C1=O | > 40 | > 40 | > 40 | > 40 | – | – | – | –
23 | CC(C)(C)OC(=O)NCCNC(C1=C(O)C(=O)c2ccccc2C1=O)c1ccccc1 (centres undefined) | > 40 | > 40 | > 40 | > 40 | – | – | – | –
24 | O=C1C(O)=C(C(NCc2ccccc2)c2cc(Br)ccc2O)C(=O)c2ccccc21 (centres undefined) [listing 2 of 2 here] | > 40 | 15.9 | – | – | – | – | 10.7 | 4.9
25 | O=C1C(O)=C(CNCCCCl)C(=O)c2ccccc21 | > 40 | > 40 | > 40 | > 40 | – | – | – | –
26 | O=C1C(O)=C(C(NCCCCl)c2ccccc2)C(=O)c2ccccc21 (centres undefined) | > 40 | > 40 | > 40 | > 40 | – | – | – | –
27 | CC(C)(C)OC(=O)NCCCNC(C1=C(O)C(=O)c2ccccc2C1=O)c1ccccc1O (centres undefined) | 37.8 | 22.7 | 26 | 17.2 | – | – | – | –
28 | O=C1C(O)=C(C(NCCCCl)c2ccc([N+](=O)[O-])cc2)C(=O)c2ccccc21 (centres undefined) | > 40 | > 40 | > 40 | > 40 | – | – | – | –
29 | CCCCCCCCCCNC(C1=C(O)C(=O)c2ccccc2C1=O)c1ccccn1 (centres undefined) | 23.3 | 1.7 | 1.7 | 3.8 | – | – | – | –
30 | O=C1C(O)=C(C(NCc2ccccc2)c2ccccn2)C(=O)c2ccccc21 (centres undefined) | > 40 | 2.2 | 1.3 | 4.8 | – | – | – | –
31 | O=C1C(O)=C(C(NCCCCl)c2cc(Br)ccc2O)C(=O)c2ccccc21 (centres undefined) | > 40 | > 40 | 28.8 | 8.4 | – | – | – | –
32 | O=C1C(O)=C(C(NCc2ccco2)c2ccccn2)C(=O)c2ccccc21 (centres undefined) | > 40 | 4.4 | 3.3 | 5.8 | – | – | – | –
33 | CC(C)(C)OC(=O)NCCNC(C1=C(O)C(=O)c2ccccc2C1=O)c1ccc([N+](=O)[O-])cc1 (centres undefined) | > 40 | > 40 | > 40 | > 40 | – | – | – | –
34 | CCCCCCCCCCNC(C1=C(O)C(=O)c2ccccc2C1=O)c1ccccc1O (centres undefined) | 30.9 | 32.2 | 23.1 | 12.2 | – | – | – | –
35 | Cc1ccc(NC(C2=C(O)C(=O)c3ccccc3C2=O)c2ccccn2)cc1 (centres undefined) | > 40 | > 40 | > 40 | > 40 | – | – | – | –
36 | CCCCCCCNC(C1=C(O)C(=O)c2ccccc2C1=O)c1cc(Br)ccc1O (centres undefined) | > 40 | > 40 | > 40 | > 40 | – | – | – | –
